Measured values: US20250207167A1, “ASPERGILLUS SP. L14-OE::LAEA2 AND APPLICATION THEREOF IN PRODUCING CYCLIC TRIPEPTIDES” (Zhejiang University of Technology, priority 2023, published 2025)
In brackets after ≈: the same amount, converted by molar mass.

Assays:
[1] = tested on: Candida albicans ATCC 10231; assay: Antifungal activity against Candida albicans (serial dilution MIC); format: cell-based; conditions: 48 hours at 30° C., absorbance at 600 nm; for MIC: Candida albicans, ATCC10231
Method: Candida albicans ATCC 10231, as an indicator strain, is activated for 3 days at 30° C. on the Sabouraud solid medium, and then amplified for 2 days at 30° C. and 180 rpm in the Sabouraud liquid medium to obtain an indicator liquid for antifungal activity testing.
An outermost ring of a 96-well plate is filled with 100 μL of the Sabouraud liquid medium for blank culture to prevent contamination; a first well of the 96-well plate is added with samples and the indicator liquid, with a total solution volume of 200 μL and a sample concentration of 128 μg/mL in the first well. A “serial dilution method” is used to achieve sample concentrations of 64, 32, 16, 8, 4, 2, 1, 0.5, and 0.25 μg/mL respectively in subsequent wells. Each sample has three parallel controls, and is incubated for 48 hours at 30° C. Then, the absorbance of the indicator liquid is measured at 600 nm using a microplate reader, and minimum inhibitory concentrations (MIC) of the compounds are recorded. The samples are the compound I, the compound II, and the compound III, with Amphotericin B as the control.

[2] = DPPH antioxidant activity test; format: biochemical; conditions: for Antioxidant activity IC50 value: DPPH scavenging, 37° C. half an hour
Method: 1 mg of solid DPPH is dissolved in 24 mL of methanol and then ultrasonicated for 5 min, followed by shaking thoroughly to obtain DPPH solution to ensure uniformity throughout the DPPH solution. 1 mL of the DPPH solution is taken and diluted by adding 0.5 mL of 95% methanol to obtain a diluted solution with an absorbance in a range of 0.6-1.0. The samples are added with methanol to prepare 1 mg/mL of sample solutions. The sample solutions are separately added to the DPPH solution while mixing continuously with a small start amount to obtain mixed solutions and an addition amount of the sample solutions gradually increases. Solution decolorization is observed when adding the sample solutions. When color of the mixed solutions has essentially faded, a maximum amount of the added sample solution is recorded. Based on the maximum amount, five additional amounts are set in an arithmetic sequence moving backwards. A final measurement is performed according to the arithmetic sequence, and for each amount, three parallel data points are measured. An absorbance value (A value) at each amount may be measured after placing the mixed solutions in a 37° C. oven for half an hour. An experimental antioxidant concentration serves as an x-axis and a scavenging rate serves as a y-axis, then a linear regression equation is calculated. 50% scavenging rate is substituted into the linear regression equation to obtain a corresponding x-axis value, which is a half-maximal inhibitory concentration (IC50) value. The samples are the compound I, the compound II, and the compound III, with vitamin C (Vc) as the control. The scavenging rate=((A0−A)/A0)×100; where A0 represents a value before adding the sample solutions, and A represents a value after adding the sample solutions.

[3] = tested on: human brain glioma cell line (HEB); assay: SRB tumor cell growth inhibition, HEB; format: cell-based; conditions: 72 h, 3 days, read-out: human brain glioma cell line HEB growth inhibition rate %
Excerpt: (§1) A Sulforhodamine B (SRB) colorimetric method is used to perform in vitro growth inhibition experiments on tumor cells with the isolated monomeric compounds A human brain glioma cell line (HEB) and a human hepatocellular carcinoma cell line (Hep-G2) both from Cell Resource Center, Institute of Basic Medical Sciences ([…]), China. Tumor cells in a logarithmic growth phase are selected and digested with trypsin followed by adjusting a cell concentration to 2×10^4 cells/mL with a Roswell Park memorial institute 1640 (RPMI 1640) medium containing 10% fetal bovine serum to obtain a tumor cell suspension. Sample solutions: the compound I, the compound II, and the compound III prepared in the embodiment 3 are separately added with DMSO to prepare 200 μM of the sample solutions. Control antibiotic solution: The antibiotic 5-fluorouracil (5-FU) is diluted with DMSO to prepare 100 μM of the control antibiotic solution. The tumor cell suspensions in Table 11 are inoculated into a 96-well culture plate at 190 μL per well, and then incubated at 37° C. with 5% carbon dioxide (CO2) for 24 hours. The culture wells are divided into drug wells, control wells, and blank wells. […] The blank wells are added with 10 μL of the RPMI 1640 medium containing 10% fetal bovine serum and an equal volume of DMSO as a solvent. The 96-well culture plate is then at 37° C. with 5% CO2 for incubation for 3 days followed by removing culture medium. Then, each well of the 96-well culture plate is slightly added with 100 μL of the 50% TCA solution pre-cooled at 4° C., and then allowed to stand for 5 min, followed by moving the 96-well culture plate to 4° C. for 1 hour to fix cells to obtain a cell-fixed plate. After discarding the fixing solution from the cell-fixed plate, the wells of the cell-fixed plate are washed five times with distilled water to remove TCA and then air-dried for 1 hour to obtain a first dried plate. Each well of the first dried plate is added with 80 μL of the 0.4% SRB solution for staining at room temperature for 30 min to obtain a stained plate. After discarding the staining solution of the stained plate, the stained plate is washed five times by 1% acetic acid aqueous solution to fully remove unbound SRB and then air-dried for 1 hour to obtain a second dried plate. Each well of the second dried plate is added with 150 μL of the 10 mM Tris-based solution for dissolving, and then oscillated for 5 min on a mini shaker (Mini shaker Kylin-Bell Lab instruments) to obtain an oscillated plate. Samples from each well of the oscillated plate are taken and an OD value at 570 nm is measured for each sample by using an M5 microplate reader.

[4] = tested on: human hepatocellular carcinoma cell line (Hep-G2); assay: SRB tumor cell growth inhibition, Hep-G2; format: cell-based; conditions: HepG2, 72 h, 3 days, read-out: human hepatocellular carcinoma cell line Hep-G2 growth inhibition rate %
Excerpt: as §1

[5] = according to literature searches; cited from earlier work
[6] = tested on: silkworms and American moths; conditions: against silkworms and American moths; literature; cited from earlier work
Candida albicans = conditions: reported in literature; cited from earlier work

| Compound | MIC [1] | antioxidant activity (in words) [2] | Antioxidant activity IC50 value [2] | inhibition at 10 µM [3] | inhibition at 10 µM [4] | other results |
| --- | --- | --- | --- | --- | --- | --- |
| C/C=C/C=C/C=C/C(=O)N[C@H]1CCCNC(=O)[C@H](C)N(C)C(=O)[C@H](C(C)C)N(C)C1=O [Compound I, aspochracin] | > 128 µg/mL | moderate antioxidant activity | 420 µg/mL | -19.9% | -17.9% | mammalian toxicity [5]: extremely low mammalian toxicity; insecticidal activity [6]: recognized insecticidal activity |
| O=C1O[C@H]([C@@H](O)CO)C(O)=C1O [Vc, vitamin C, reference compound] |  |  | 9 µg/mL |  |  |  |
| C/C=C/C=C/C=C/C(=O)N[C@H]1CCCNC(=O)[C@H](C)NC(=O)[C@H](C(C)C)N(C)C1=O [Compound II, JBIR-15] | 32 µg/mL (≈ 76.5 µM) | moderate antioxidant activity | 400 µg/mL | -6.04% | 11.8% | anti-Candida albicans activity, minimum inhibitory concentration (MIC) (Candida albicans): 30 µg/mL |
| O=c1[nH]cc(F)c(=O)[nH]1 [Compound 5-FU, 5-fluorouracil, reference compound] |  |  |  |  |  | inhibition at 5 µM ([3]; positive control, 5 μM): 69.5%; inhibition at 5 µM ([4]; positive control, 5 μM): 71.3% |
| C[C@@H]1[C@H](O)[C@@H](C)/C=C/C=C/C=C/C=C/C=C/C=C/C=C/[C@H](O[C@@H]2O[C@H](C)[C@@H](O)[C@H](N)[C@@H]2O)C[C@@H]2O[C@](O)(C[C@@H](O)C[C@@H](O)[C@H](O)CC[C@@H](O)C[C@@H](O)CC(=O)O[C@H]1C)C[C@H](O)[C@H]2C(=O)O [Amphotericin B, reference compound] |  |  |  |  |  | MIC value against the Candida albicans ATCC 10231 [1]: 2 µg/mL (≈ 2.16 µM) |
| C/C=C/C=C/C=C/C(=O)N[C@H]1CCCCNC(=O)[C@H](C)N(C)C(=O)[C@H](C(C)C)N(C)C1=O [Compound III, sclerotiotide C] | > 128 µg/mL | moderate antioxidant activity | 430 µg/mL | -13.7% | 21.1% |  |
